Series [1] can be described thus: Dissociation constant, pKa of the compound. The series is classed as physicochemical.
The nature of series [2]: Drug level in mouse brain at 20 mg/kg, iv after 30 mins. Particulars: read-out: Drug uptake. The series is classed as ADME, organism-based. More on the design: dose 20 mg/kg, route intravenous.
Series [3] is described as follows: Ratio of drug level in brain to plasma in mouse at 20 mg/kg, iv after 30 mins. The series is classed as ADME, organism-based. Set-up: dose 20 mg/kg, route intravenous. Particulars: brain and plasma, read-out: BPR.

What is called pKa is the pH at which an ionisable group is half protonated. A lower pKa goes with a group that gives up its proton readily. Compound `COc1ccc(C(Cc2cc([N+](=O)[O-])ccc2OC)c2c[nH]c(N)n2)cc1` (stereo not given) showed a pKa in series [1] of 8.1.

Take `Nc1nc(C2(c3ccc(Cl)cc3)CCCC2)cs1`: the concentration at 0.5 h in series [2] was 15 µM. For the same compound, in series [3], the Kp at 0.5 h was 3.9.

With `COc1ccc(C(Cc2cc([N+](=O)[O-])ccc2OC)c2csc(N)n2)cc1` (stereo not given), the pKa in series [1] came out at 5.5.

The compound `COc1ccc(C(Cc2cc([N+](=O)[O-])ccc2OC)c2cn(C)c(N)n2)cc1` (stereo not given) registered a pKa in series [1] of 8.3.

The values above are taken from ChEMBL document CHEMBL1136900, “Discovery of aminoheterocycles as a novel beta-secretase inhibitor class: pH dependence on binding activity part 1” (Bioorg Med Chem Lett, 2009).
